Data as given in publication PMC8187944, “Discovery of Potent EGFR Inhibitors With 6-Arylureido-4-anilinoquinazoline Derivatives” (Frontiers in Pharmacology, 2021).

Key:
Experiment in all cases: Kinase spectrum assay (ADP-Glo)
Details in all cases: remaining enzyme activity at 1 μm compound
[1] = target: Csk (Homo sapiens, UniProt P41240)
Protocol: The above-prepared systems were sealed and incubated at room temperature for 2 h, and 5 μl of ADP-GLO was added to terminate the kinase reaction. Then, the culture plate was sealed and incubated in a thermostatic oscillator for 40 min to fully consume the remaining ATP. The luciferase/luciferin reaction was adopted to determine the newly generated ATP level.

[2] = target: Syk (Homo sapiens, UniProt P43405)
Protocol: (§1) The ADP-Glo™ kinase detection kit is a luminescence kinase detection approach that detects the amount of ADP produced by the kinase reaction. After ADP is converted into ATP, ATP can be used as the substrate of the luciferase-catalyzed reaction to generate an optical signal, which is positively correlated with kinase activity. […] The above-prepared systems were sealed and incubated at room temperature for 2 h, and 5 μl of ADP-GLO was added to terminate the kinase reaction. Then, the culture plate was sealed and incubated in a thermostatic oscillator for 40 min to fully consume the remaining ATP. The luciferase/luciferin reaction was adopted to determine the newly generated ATP level.

[3] = target: FLT3 (Homo sapiens, UniProt P36888)
Protocol: as §1

[4] = target: KDR (Homo sapiens, UniProt P35968)
Protocol: as §1

[5] = target: ASK1 (Homo sapiens, UniProt Q99683)
Chain of ASK1 (Q99683 whole entry): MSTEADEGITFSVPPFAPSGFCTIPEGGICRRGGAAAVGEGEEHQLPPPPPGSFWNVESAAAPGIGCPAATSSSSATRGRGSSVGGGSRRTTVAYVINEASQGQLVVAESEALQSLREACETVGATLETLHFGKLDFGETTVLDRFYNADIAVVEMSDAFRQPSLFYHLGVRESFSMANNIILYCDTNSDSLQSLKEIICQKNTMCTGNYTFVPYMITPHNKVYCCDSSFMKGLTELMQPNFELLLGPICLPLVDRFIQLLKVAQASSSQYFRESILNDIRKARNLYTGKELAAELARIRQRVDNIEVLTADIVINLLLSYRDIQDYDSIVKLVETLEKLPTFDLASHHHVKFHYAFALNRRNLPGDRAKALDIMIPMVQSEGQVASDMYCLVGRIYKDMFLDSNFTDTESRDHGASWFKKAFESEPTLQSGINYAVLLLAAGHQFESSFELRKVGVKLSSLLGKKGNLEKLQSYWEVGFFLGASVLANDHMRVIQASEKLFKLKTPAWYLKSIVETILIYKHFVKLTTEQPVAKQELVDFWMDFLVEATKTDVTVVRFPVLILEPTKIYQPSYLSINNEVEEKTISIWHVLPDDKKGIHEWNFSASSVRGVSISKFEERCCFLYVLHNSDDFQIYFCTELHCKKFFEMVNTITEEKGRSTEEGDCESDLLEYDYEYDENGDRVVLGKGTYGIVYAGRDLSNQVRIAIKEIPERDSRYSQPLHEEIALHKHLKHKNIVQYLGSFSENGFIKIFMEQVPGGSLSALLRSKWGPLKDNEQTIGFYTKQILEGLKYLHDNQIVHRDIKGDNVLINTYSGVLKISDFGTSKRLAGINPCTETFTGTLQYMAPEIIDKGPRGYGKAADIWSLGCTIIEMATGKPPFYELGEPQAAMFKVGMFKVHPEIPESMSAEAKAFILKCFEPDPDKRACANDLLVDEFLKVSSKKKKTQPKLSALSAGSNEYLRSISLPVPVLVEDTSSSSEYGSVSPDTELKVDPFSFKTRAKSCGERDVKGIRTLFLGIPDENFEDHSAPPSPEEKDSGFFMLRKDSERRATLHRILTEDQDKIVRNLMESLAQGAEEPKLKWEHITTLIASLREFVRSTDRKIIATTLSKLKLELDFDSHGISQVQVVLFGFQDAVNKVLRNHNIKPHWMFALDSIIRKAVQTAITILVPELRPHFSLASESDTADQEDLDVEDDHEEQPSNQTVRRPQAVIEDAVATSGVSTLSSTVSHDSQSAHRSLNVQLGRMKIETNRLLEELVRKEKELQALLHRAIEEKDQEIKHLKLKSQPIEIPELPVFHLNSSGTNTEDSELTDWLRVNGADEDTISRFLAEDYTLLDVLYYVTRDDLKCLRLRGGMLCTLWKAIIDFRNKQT
Protocol: as §1

[6] = target: MAPKAPK2 (Homo sapiens, UniProt P49137)
Chain of MAPKAPK2 (P49137 whole entry): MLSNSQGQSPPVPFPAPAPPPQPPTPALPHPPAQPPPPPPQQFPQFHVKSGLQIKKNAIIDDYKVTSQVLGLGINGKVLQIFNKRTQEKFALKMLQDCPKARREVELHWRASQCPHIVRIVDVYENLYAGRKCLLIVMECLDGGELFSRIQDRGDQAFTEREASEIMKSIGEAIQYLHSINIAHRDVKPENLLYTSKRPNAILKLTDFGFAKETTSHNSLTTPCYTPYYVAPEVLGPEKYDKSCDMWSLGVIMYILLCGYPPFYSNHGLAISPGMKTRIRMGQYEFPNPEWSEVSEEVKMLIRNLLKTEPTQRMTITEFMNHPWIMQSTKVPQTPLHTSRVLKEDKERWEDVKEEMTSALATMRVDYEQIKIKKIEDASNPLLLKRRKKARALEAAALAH
Protocol: as §1

[7] = target: CDK2 (Homo sapiens, UniProt P24941)
Protocol: as §1

[8] = target: JNK1 (Homo sapiens, UniProt P45983)
Chain of JNK1 (P45983 whole entry): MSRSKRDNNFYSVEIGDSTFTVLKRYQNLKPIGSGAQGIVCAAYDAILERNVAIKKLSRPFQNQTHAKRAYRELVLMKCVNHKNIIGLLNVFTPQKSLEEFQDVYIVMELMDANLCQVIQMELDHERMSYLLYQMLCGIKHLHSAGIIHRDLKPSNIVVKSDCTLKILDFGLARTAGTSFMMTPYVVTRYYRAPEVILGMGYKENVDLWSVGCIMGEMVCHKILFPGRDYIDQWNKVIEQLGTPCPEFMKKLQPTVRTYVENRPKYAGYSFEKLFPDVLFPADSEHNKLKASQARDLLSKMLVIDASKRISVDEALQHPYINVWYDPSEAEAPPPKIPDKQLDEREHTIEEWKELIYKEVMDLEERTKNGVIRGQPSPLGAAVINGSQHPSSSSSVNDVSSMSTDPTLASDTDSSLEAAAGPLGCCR
Protocol: as §1

[9] = target: GSK3β (Homo sapiens, UniProt P49841)
Chain of GSK3β (P49841 whole entry): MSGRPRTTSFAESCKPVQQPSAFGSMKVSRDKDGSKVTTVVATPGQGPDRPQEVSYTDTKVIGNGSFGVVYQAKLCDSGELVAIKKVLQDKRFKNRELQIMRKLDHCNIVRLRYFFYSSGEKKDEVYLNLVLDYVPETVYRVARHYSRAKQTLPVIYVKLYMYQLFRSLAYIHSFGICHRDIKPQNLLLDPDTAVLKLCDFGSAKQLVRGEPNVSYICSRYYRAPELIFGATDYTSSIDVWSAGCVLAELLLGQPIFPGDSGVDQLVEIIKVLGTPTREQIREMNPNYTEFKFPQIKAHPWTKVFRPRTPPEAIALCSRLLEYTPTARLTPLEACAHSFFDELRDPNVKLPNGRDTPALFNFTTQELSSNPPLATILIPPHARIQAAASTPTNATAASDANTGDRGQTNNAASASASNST
Protocol: as §1

[10] = target: B-raf (Homo sapiens, UniProt P15056)
Chain of B-raf (P15056 whole entry): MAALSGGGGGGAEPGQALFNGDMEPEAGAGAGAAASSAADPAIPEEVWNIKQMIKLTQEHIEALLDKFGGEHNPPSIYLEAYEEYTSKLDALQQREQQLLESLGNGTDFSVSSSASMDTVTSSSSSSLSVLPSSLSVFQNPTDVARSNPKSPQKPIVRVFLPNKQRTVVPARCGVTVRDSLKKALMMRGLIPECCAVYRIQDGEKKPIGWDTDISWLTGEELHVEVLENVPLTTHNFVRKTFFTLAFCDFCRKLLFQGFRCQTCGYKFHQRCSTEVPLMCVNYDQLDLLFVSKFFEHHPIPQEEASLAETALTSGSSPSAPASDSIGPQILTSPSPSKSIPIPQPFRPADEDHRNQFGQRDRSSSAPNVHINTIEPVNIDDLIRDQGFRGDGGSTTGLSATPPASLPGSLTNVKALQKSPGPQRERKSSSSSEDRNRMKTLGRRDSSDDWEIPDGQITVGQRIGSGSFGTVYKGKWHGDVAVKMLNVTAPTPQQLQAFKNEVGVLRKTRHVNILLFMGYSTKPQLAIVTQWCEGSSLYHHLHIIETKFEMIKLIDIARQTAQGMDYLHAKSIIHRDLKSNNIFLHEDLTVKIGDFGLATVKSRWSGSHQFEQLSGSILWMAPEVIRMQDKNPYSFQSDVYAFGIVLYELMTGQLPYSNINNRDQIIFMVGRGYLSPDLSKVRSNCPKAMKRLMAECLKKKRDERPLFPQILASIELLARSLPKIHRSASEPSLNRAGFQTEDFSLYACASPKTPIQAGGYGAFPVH
Protocol: as §1

Chain of FLT3 (P36888 27-993): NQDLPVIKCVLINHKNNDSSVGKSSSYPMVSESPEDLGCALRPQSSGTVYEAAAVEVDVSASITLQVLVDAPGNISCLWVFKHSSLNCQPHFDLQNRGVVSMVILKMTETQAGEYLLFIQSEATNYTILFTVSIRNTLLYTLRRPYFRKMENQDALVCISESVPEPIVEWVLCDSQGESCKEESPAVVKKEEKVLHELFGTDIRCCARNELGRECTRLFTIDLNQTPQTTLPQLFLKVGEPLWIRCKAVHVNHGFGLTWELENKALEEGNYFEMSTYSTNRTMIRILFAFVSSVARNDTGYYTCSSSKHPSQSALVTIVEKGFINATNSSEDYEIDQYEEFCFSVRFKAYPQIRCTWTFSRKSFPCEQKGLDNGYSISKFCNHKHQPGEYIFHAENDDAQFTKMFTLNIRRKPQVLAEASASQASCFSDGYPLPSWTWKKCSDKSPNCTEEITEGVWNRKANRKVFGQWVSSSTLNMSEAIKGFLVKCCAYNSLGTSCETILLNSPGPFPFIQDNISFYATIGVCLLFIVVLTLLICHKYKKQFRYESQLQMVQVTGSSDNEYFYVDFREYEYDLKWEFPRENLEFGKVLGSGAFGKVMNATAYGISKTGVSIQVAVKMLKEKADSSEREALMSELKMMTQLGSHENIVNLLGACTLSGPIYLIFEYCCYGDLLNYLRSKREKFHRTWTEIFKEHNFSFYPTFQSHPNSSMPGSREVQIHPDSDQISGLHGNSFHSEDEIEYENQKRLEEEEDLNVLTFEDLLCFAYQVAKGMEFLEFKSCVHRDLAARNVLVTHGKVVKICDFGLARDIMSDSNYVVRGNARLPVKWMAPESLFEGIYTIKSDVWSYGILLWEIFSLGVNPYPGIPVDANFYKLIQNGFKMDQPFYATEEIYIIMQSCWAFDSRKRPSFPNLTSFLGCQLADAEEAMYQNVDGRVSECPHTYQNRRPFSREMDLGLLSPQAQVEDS

Enzyme activity % Csk [1]: 93.76 ± 4.09%
Enzyme activity % Syk [2]: 101.13 ± 9.99%
Enzyme activity % FLT3 [3]: 92.18 ± 15.36%
Enzyme activity % KDR [4]: 79.66 ± 2.00%
Enzyme activity % ASK1 [5]: 62.27 ± 3.02%
Enzyme activity % MAPKAPK2 [6]: 86.46 ± 7.38%
Enzyme activity % CDK2 [7]: 77.40 ± 6.84%
Enzyme activity % JNK1 [8]: 89.43 ± 2.48%
Enzyme activity % GSK3β [9]: 103.71 ± 1.75%
Enzyme activity % B-raf [10]: 96.68 ± 4.29%
Compound: O=C(Nc1ccc(Cl)c(C(F)(F)F)c1)Nc1ccc2ncnc(Nc3cccc(Br)c3)c2c1 [Compound 7i]
